According to publication PMC5468484 (The Pediatric infectious disease journal, 2017):
“Also recorded” adds a separate entry of the source. Where two headings read alike, the source gives them in different places.

Tests used:
[1] = Long term stability of dalbavancin plasma samples; format: in vitro ADME, human; conditions: plasma (K2-EDTA), 368 days stored at −20°C, LC-MS/MS
[2] = Safety evaluation; format: in vivo, human
[3] = human plasma; cited from earlier work
[4] = cited from earlier work
[5] = system: acute bacterial skin and skin structure infections; conditions: adults, cited from earlier work
[6] = clinical; conditions: human, in vivo, iv
[7] = system: cytochrome P450 isoenzymes; conditions: cited from earlier work
[8] = for Terminal half-life: study DUR001-106, single IV dose, post-hoc slope of gamma phase, three compartment model, median (range)
[9] = among the 36 treatment-emergent AEs
[10] = children 3 months to 11 years (N=34)
[11] = children 3 months to 11 years, single IV dose
[12] = nonparametric bootstrap (N=1000) of final model
[13] = three-compartment model, 43 subjects, typical value at weight 40.9 kg

CN[C@H]1C(=O)N[C@@H]2Cc3ccc(cc3)Oc3cc4cc(c3O[C@@H]3O[C@H](C(=O)O)[C@@H](O)[C@H](O)[C@H]3NC(=O)CCCCCCCCC(C)C)Oc3ccc(cc3Cl)[C@@H](O)[C@@H]3NC(=O)[C@H](NC(=O)[C@@H]4NC(=O)[C@@H](NC2=O)c2cc(cc(O)c2Cl)Oc2cc1ccc2O)c1ccc(O)c(c1)-c1c(O[C@H]2O[C@H](CO)[C@@H](O)[C@H](O)[C@@H]2O)cc(O)cc1[C@@H](C(=O)NCCCN(C)C)NC3=O [dalbavancin]
Long term stability of plasma samples [1]: stable | AEs deemed possibly related to dalbavancin treatment ([2]; N=1 each): rash, diaper dermatitis, urticaria, and asymptomatic hepatic enzyme elevation | Treatment-emergent AEs considered mild [2, 9]: 26 | Treatment-emergent AEs considered moderate [2, 9]: 6 | Treatment-emergent AEs considered severe [2, 9]: 4 | Number of treatment-emergent AEs [2, 10]: 36 | Serious or severe treatment-emergent AEs considered related to dalbavancin treatment [2, 10]: None and no serious or severe AEs related to treatment | Subjects who experienced a serious AE [2, 10]: Five | Deaths [2, 11]: no deaths were reported | Tolerability [2, 11]: well tolerated | AE probably related to study treatment ([2]; one subject): infusion site discomfort | Adverse events assessed as possibly or probably related to treatment ([2]; out of 36 treatment-emergent adverse events): Five | Binding to plasma proteins [3]: 93% | Volume of distribution at steady-state ([4]; adults): 15.9 L | Eliminated as the parent compound in feces and urine [4]: ~ 70% | Efficacy of single 1500 mg infusion versus the 2-dose regimen ([5]; ABSSSI): as effective as the 2-dose regimen; also recorded: noninferior to the 2-dose regimen | Efficacy versus intravenous vancomycin with subsequent oral linezolid in ABSSSI ([5]; two studies, 2-dose dalbavancin regimen): not inferior; also recorded: noninferior | clearance [6]: 1.05 mL/h/kg | clearance ([6]; 10 mg/kg): 1.23 mL/h/kg | clearance ([6]; 15 mg/kg): 0.795 mL/h/kg | Substrate, inhibitor or inducer of cytochrome P450 isoenzymes [7]: not a substrate, inhibitor, or inducer | Terminal half-life ([8]; 2 years to <6 years (N=11)): 315 (271–332) h | Terminal half-life ([8]; 3 months to <2 years (N=11)): 279 (244–298) h | Terminal half-life ([8]; 6 to 11 years (N=11)): 390 (317–490) h | Power coefficient of albumin on Vc, final model estimate ([8]; (Albumin/3.7)^coefficient): −0.73 | Power coefficient of albumin on Vc, bootstrap median [8, 12]: −0.72 | Power coefficient of weight on volume parameters, bootstrap median [8, 12]: 0.95 | Power coefficient of weight on volume parameters, final model estimate ([8]; same coefficient for Vc, Vp1, Vp2, ((Weight in kg)/40.9)^coefficient): 0.95 | Vp1 (volume of distribution for peripheral compartment 1), final model estimate [8, 13]: 2.90 L | Vp2 (volume of distribution for peripheral compartment 2), final model estimate [8, 13]: 2.93 L
